Among the data in patent US11939303B2, “Sulfamate derivatives of 4-(1-phenyl-1H-[1,2,3]triazol-4-yl)-phenol, derivatives of 4-(1-phenyl-1H-[1,2,3]triazol-4-yl)-phenol, their medical use and the method of obtaining 4-(1-phenyl-1H-[1,2,3]triazol-4-yl)-phenyl sulfamate derivatives” (POLITECHNIKA GDANSKA, priority 2018, dated 2024) are IC50 values, retold here.

By IC50 is commonly meant the concentration at which inhibition is half-maximal.

This assay has as its target T1, STS steroid sulfatase enzyme isolated from a human placenta (Homo sapiens, UniProt P08842).
T1 construct: human placenta was stripped from membranes and homogenized in ice-cold Tris-HCl buffer pH 7.4; from tissue; host or cells: human placenta
T1 sequence (P08842 22-583): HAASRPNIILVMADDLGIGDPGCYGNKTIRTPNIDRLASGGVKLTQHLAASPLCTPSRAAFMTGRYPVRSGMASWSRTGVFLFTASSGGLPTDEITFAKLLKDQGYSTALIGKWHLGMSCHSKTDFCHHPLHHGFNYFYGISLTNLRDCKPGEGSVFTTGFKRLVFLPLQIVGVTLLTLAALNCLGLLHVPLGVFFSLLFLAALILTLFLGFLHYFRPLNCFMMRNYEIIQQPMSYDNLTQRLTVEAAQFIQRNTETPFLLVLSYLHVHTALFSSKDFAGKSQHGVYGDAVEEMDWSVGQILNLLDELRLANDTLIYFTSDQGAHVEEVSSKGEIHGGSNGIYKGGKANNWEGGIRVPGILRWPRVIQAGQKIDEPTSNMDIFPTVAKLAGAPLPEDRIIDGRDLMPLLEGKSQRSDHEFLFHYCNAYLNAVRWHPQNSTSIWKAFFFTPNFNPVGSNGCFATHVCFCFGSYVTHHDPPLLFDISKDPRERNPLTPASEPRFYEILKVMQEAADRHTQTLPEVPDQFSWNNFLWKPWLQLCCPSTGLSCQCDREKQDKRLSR
Put plainly: STS steroid sulfatase enzymatic assay with nitrophenyl sulfate (NPS). The class given is biochemical. The conditions noted are these: NPS substrate, pH 7.25, 60 minutes, p-nitrophenol at 405 nm, read-out: IC50 (ability to inhibit steroid sulfatase activity). On the procedure: The medical and biological activity of the compounds defined the general formula 1, for use as active compounds—medicament—drugs and/or as STS steroid sulfatase inhibitors, diagnostic agent and biological use were evaluated using the STS steroid sulfatase enzyme isolated from a human placenta according to the following procedure: • human placenta was stripped from membranes and homogenized in ice-cold Tris-HCl buffer pH 7.4 containing 0.1% Triton X-100 and 0.02% NaN3. • the homogenate was alternately frozen and thawed a few times and then centrifuged at 100000 g for 60 min, • the supernatant was removed and the same procedure from homogenization to centrifugation was carried out 5 times, • finally, the enzyme was purified by three-step chromatography using columns: DEAE-cellulose, Con A-Sepharose and Bio-Gel A-1.5 and appropriate buffers. All steps were carried out at 4° C. The biological, diagnostics and medical activity of STS inhibitors, for the compounds defined by the general formula 1, were evaluated by analyzing the progress of the enzymatic reaction using nitrophenyl sulfate (NPS). The final volume of the reaction mixture was 120 μL (pH=7.25) and contained 0.8 μmol NPS, 40 μmol Tris HCl and the appropriate amount of enzyme. After 60 minutes of reaction time, 0.5 mL of 1M NaOH was added to the reaction mixture. Released p nitrophenol was determined using a spectrophotometer at 405 nm. In the final step, the IC50 parameter values (characterizing the ability of obtained compounds to inhibit steroid sulfatase activity) were determined. […] Therefore, the compounds of the general formula 1 have biological, medical and diagnostic activity, and have medical applications for use as a medicament a well as in diagnostics for use as a diagnostic agent. It has been confirmed that the new compounds with general formula 1, as one of the possible mechanisms of medical and biological action, show a strong STS inhibitory activity at low micromolar or nanomolar concentrations, which is sufficient for the compounds to act as drugs classified as steroid sulfatase inhibitors or as compounds for use as steroid sulfatase inhibitors in diagnostic tests, in vitro clinical trials and its use in biological sciences. In particular, the compounds of the general formula 1 are for use as medicaments—useful as drugs in cancer therapy and in particular in the therapy of hormone-dependent cancers of animals, in particular mammals, including humans.
As to `NS(=O)(=O)Oc1ccc(-c2cn(-c3cc(F)cc(F)c3)nn2)cc1` [4-[1-(3,5-difluoro-phenyl)-1H-[1,2,3]-triazol-4-yl]-phenyl sulfamate], the IC50 is 36 nM.
Regarding `NS(=O)(=O)Oc1ccc(-c2cn(-c3cccc(C(F)(F)F)c3)nn2)cc1` [4-[1-(3-trifluoromethyl-phenyl)-1H-[1,2,3]-triazol-4-yl]-phenyl sulfamate], the IC50 came out at 180 nM.
With `NS(=O)(=O)Oc1ccc(-c2cn(-c3cc(C(F)(F)F)cc(C(F)(F)F)c3)nn2)cc1` [4-[1-(3,5-Bis-trifluoromethyl-phenyl)-1H-[1,2,3]triazol-4-yl]-phenyl sulfamate], the IC50 was found to be 821 nM.
Turning to `NS(=O)(=O)Oc1ccc(-c2cn(-c3ccc(OC(F)(F)F)cc3)nn2)cc1` [4-[1-(4-trifluoromethoxy-phenyl)-1H-[1,2,3]-triazol-4-yl]-phenyl sulfamate], the IC50 stood at 240 nM.
